Calls of active or inactive are those of the source.
Legend:
[1] = biological target: T1, Rac GTPase-activating protein 1 (Homo sapiens, UniProt Q9H0H5); experiment: MgcRacGAP GTPase-activating activity inhibitors, confirmation, biochemical, ADP Hunter fluorescence, primary and confirmatory (AID 624330); assay type: functional
T1 sequence (Q9H0H5 whole entry): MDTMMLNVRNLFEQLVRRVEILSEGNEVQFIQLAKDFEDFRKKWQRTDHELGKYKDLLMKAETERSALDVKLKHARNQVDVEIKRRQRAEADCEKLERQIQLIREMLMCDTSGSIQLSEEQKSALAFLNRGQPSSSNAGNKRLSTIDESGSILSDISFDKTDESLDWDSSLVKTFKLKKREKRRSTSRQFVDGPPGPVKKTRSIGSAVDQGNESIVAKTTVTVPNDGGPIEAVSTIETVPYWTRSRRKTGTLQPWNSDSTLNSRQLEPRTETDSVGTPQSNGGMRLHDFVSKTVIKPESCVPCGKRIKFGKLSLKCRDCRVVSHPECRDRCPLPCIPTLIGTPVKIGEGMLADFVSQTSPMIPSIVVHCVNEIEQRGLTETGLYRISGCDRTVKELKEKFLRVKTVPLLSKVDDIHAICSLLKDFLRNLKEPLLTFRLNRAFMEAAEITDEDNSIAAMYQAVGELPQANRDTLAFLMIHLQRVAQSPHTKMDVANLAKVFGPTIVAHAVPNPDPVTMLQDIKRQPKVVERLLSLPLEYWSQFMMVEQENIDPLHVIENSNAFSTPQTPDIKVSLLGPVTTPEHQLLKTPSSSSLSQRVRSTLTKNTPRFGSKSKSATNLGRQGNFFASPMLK

[2] = biological target: FAD-linked sulfhydryl oxidase ALR (Homo sapiens, UniProt P55789); experiment: inhibitors of human ALR sulfhydryl oxidase, dose response, biochemical, H2O2 detection, luminescence, cherry-pick (AID 493248)
Chain of FAD-linked sulfhydryl oxidase ALR (P55789 whole entry): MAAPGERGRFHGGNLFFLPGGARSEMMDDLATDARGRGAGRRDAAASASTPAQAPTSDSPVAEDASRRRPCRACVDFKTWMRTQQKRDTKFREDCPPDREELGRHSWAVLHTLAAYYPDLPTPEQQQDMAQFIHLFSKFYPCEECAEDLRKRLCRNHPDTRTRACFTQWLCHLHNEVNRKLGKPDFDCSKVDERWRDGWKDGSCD

[3] = biological target: T2, Corticotropin-releasing factor receptor 2/Corticotropin-releasing factor-binding protein (Homo sapiens, UniProt P24387+Q13324); experiment: Dose Response confirmation of uHTS hits for small molecule antagonists of the CRF-binding protein and CRF-R2 receptor complex.; assay type: functional; conditions: read-out: IC50_Mean
T2 sequence (Q13324 whole entry): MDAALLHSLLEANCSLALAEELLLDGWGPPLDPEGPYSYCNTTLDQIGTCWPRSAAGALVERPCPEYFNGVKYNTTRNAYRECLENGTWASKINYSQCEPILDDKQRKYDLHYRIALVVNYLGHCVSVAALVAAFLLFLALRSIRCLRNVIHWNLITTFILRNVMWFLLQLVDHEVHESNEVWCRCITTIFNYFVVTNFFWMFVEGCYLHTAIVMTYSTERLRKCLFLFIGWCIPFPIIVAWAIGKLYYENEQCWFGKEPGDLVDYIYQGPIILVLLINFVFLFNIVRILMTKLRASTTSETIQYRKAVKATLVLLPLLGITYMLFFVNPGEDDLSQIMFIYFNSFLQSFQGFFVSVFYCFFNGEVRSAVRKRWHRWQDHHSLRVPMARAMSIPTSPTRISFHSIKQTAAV
T2 sequence (P24387 whole entry): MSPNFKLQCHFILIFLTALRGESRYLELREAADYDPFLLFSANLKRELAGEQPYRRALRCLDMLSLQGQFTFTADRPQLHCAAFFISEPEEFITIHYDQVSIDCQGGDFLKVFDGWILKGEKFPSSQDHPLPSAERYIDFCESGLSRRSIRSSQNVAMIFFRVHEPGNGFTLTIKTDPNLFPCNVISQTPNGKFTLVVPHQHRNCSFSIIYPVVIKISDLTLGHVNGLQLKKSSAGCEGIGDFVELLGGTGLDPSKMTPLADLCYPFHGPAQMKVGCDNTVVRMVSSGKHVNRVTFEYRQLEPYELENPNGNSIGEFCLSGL

[4] = biological target: T2, Corticotropin-releasing factor receptor 2/Corticotropin-releasing factor-binding protein; experiment: activators of CRF receptor 2 with binding protein – uHTS hits, confirmation (AID 602473); assay type: functional; conditions: read-out: EC50_Mean
[5] = biological target: T3, Fatty acid synthase (Homo sapiens, UniProt P49327); experiment: FAS thioesterase domain inhibitors, dose response, biochemical, endpoint fluorescence intensity, uHTS hits (AID 624327); assay type: functional;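 note: fluorescence from hydrolysis of an O-methyl fluorescein acyl ester substrate by the enzyme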
T3 sequence (P49327 whole entry, the tested form may be a part): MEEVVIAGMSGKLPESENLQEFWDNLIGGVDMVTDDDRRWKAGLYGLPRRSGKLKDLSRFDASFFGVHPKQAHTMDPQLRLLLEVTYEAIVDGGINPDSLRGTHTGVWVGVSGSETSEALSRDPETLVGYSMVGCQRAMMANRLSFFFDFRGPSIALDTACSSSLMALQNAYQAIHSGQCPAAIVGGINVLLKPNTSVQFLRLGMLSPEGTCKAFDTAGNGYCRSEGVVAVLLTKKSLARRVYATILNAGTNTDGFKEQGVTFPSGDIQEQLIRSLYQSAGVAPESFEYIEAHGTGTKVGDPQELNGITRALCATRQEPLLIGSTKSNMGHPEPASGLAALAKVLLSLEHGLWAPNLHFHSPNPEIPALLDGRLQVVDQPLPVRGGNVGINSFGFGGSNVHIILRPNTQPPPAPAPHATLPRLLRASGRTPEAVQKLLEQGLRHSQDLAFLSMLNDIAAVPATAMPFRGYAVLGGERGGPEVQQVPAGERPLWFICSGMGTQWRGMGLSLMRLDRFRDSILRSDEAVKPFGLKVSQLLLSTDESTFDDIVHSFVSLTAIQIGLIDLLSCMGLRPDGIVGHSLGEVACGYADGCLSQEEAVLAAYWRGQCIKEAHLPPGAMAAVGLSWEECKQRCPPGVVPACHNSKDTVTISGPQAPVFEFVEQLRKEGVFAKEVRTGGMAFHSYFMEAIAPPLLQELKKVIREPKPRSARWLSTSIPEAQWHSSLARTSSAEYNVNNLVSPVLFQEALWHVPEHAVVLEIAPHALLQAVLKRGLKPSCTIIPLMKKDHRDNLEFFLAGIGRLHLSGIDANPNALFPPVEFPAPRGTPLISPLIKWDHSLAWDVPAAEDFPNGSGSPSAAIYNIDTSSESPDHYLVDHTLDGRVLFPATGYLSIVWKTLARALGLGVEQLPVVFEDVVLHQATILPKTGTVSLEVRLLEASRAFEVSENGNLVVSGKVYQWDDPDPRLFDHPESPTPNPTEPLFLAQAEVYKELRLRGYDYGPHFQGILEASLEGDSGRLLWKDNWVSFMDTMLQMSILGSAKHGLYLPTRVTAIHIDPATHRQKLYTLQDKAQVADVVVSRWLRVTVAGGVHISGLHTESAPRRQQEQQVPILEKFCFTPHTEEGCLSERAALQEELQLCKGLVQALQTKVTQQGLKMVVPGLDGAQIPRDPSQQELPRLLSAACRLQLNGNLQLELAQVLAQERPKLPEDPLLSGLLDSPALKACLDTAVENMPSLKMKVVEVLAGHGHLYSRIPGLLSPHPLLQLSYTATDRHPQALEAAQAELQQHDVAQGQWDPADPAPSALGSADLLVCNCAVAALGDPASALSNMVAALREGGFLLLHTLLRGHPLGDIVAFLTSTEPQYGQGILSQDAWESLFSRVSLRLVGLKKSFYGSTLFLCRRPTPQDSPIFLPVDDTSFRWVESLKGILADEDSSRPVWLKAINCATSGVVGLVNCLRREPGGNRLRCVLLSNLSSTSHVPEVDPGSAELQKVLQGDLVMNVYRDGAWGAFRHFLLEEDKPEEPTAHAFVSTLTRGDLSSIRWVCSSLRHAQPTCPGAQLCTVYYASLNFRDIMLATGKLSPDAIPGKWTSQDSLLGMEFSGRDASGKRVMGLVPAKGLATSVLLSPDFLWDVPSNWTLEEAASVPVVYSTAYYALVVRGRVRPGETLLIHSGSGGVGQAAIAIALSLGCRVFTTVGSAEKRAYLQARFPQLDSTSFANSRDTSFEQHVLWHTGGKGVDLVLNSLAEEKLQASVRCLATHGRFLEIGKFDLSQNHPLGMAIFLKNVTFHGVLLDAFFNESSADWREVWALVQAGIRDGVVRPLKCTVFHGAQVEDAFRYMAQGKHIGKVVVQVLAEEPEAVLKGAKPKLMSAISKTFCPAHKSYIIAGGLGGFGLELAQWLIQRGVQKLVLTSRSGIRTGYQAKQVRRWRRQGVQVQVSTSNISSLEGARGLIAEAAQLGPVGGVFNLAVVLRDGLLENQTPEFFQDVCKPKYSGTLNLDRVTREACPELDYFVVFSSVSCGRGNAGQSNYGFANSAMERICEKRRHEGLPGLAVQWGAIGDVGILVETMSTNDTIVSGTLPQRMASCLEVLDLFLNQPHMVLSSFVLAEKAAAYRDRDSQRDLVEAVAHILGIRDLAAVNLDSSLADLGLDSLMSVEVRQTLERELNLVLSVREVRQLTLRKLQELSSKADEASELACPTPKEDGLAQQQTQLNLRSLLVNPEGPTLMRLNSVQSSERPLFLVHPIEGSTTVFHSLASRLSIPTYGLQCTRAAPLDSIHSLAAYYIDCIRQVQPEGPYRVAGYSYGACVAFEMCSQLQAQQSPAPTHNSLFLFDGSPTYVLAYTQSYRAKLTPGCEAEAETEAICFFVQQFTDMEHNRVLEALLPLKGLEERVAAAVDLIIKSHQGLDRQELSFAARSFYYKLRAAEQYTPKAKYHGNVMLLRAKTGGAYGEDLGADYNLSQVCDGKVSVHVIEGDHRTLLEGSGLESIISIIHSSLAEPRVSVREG

[6] = biological target: T3, Fatty acid synthase; experiment: FAS thioesterase domain inhibitors, dose response, biochemical, kinetic fluorescence intensity (AID 624326); assay type: functional;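 note: rate of fluorescence rise from hydrolysis of a fluorogenic O-methyl fluorescein ester substrate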
[7] = biological target: T4, Streptokinase A (Streptococcus pyogenes serotype M1, UniProt P10520); experiment: S. pyogenes streptokinase expression inhibitors, potency, dose response, plasminogen activation absorbance, OD405 (AID 1914); assay type: functional, Streptococcus pyogenes M1 GAS;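 note: secreted streptokinase activity via plasminogen activation per viability signal from cell pellet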
T4 sequence (P10520 whole entry): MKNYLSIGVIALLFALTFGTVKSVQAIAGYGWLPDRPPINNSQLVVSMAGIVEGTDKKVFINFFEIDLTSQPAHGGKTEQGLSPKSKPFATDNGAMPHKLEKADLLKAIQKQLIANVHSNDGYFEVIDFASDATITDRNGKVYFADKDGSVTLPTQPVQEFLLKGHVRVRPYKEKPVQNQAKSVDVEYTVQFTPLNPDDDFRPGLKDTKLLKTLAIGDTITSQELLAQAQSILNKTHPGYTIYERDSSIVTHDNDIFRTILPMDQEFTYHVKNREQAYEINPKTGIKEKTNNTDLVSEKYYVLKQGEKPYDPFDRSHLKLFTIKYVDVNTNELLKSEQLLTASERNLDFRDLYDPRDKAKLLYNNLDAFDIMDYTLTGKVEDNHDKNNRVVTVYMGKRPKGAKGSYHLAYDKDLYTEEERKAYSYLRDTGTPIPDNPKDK

[8] = tested on: Streptococcus sp. 'group A'; experiment: growth inhibition of control SK(-) GAS strain, dose response, counter-screen for streptokinase expression inhibitor project, luminescence, kanamycin, BacTiterGlo, confirmation (AID 1900); assay type: functional, organism-based
[9] = tested on: Streptococcus; experiment: Group A Streptococcus viability loss, dose response, counter-screen for streptokinase expression inhibitor project, luminescence, BacTiterGlo (AID 1915); assay type: functional, organism-based;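 note: potency for reduction of bacterial viability or growth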
[10] = biological target: Large T antigen (Simian virus 40, UniProt P03070); assay type: functional, Betapolyomavirus macacae;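 note: Confirmatory-stage PubChem screen for compounds that inhibit SV40 T antigen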
Chain of Large T antigen (P03070 whole entry): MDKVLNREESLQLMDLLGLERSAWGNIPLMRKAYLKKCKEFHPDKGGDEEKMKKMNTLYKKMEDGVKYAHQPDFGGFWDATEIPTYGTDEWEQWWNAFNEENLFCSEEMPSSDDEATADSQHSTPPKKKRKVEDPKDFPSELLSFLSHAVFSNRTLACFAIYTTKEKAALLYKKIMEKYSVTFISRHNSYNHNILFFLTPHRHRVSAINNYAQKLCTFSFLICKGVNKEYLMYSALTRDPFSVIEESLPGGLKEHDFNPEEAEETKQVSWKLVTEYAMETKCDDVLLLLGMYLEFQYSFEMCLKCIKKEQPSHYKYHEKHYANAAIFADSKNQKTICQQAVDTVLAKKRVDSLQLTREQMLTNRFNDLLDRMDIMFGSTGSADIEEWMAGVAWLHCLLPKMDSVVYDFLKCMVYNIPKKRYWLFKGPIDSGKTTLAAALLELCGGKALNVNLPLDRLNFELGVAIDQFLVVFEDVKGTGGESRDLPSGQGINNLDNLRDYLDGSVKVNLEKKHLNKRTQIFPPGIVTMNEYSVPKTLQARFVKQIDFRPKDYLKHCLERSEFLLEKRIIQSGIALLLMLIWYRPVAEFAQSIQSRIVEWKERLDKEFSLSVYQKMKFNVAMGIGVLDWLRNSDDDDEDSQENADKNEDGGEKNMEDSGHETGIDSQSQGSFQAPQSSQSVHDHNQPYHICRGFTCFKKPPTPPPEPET

[11] = biological target: T5, Cytochrome P450 1A2 (Homo sapiens, UniProt P05177);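 note: PubChem cytochrome P450 panel assay, CYP1A2 panel member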
T5 sequence (P05177 whole entry): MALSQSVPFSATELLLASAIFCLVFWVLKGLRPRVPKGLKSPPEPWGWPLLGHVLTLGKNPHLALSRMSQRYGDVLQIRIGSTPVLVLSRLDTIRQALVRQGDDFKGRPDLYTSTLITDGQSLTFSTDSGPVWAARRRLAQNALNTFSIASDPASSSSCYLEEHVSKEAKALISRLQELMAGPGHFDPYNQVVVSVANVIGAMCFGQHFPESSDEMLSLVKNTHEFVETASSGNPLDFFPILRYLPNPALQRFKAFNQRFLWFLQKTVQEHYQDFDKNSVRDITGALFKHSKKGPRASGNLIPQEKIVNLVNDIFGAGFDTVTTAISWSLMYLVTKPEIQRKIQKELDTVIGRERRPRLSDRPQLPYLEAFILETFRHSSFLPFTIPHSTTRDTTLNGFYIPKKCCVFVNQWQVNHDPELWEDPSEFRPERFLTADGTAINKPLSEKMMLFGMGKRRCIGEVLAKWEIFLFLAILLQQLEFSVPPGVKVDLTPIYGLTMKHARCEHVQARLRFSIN

[12] = biological target: Cytochrome P450 3A4 (Homo sapiens, UniProt P08684);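 note: CYP3A4 tested as one member of a cytochrome P450 panel screen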
Chain of Cytochrome P450 3A4 (P08684 whole entry): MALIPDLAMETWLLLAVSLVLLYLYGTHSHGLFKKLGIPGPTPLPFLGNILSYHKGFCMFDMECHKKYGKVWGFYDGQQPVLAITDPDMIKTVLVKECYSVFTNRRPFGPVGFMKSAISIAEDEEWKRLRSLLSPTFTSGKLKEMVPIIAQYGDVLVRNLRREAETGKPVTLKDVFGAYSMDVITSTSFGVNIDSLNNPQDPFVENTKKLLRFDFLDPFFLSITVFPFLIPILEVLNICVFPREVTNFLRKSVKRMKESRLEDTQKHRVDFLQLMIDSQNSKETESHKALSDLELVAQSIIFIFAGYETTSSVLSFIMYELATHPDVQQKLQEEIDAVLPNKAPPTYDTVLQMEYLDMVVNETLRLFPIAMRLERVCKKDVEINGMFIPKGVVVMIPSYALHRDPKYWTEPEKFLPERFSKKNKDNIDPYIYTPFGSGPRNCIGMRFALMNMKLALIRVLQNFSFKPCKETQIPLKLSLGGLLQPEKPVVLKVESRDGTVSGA

[13] = cytotoxicity toward DRD oncogenic fibroblasts, dose response, cell-based, non-viral oncogenic, luminescence (AID 1934); assay type: functional; conditions: Homo sapiens
[14] = tested on: BJ; experiment: cells; assay type: functional, cell-based; conditions: Homo sapiens
[15] = tested on: BJ; experiment: cytotoxicity toward BJ-TERT fibroblasts, dose response, cell-based, RAS-independent, luminescence (AID 1933); assay type: functional; conditions: Homo sapiens
[16] = tested on: BJ; experiment: cytotoxicity toward BJ-TERT-LT-ST fibroblasts, dose response, cell-based, RAS-independent, luminescence (AID 1935); assay type: functional; conditions: Homo sapiens;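 note: BJ fibroblasts immortalized with TERT plus LT and ST oncogenes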
[17] = HEp-2 cell cytotoxicity, dose response, cytotoxicity control for RSV inhibitor project, HTS (AID 2410); assay type: functional; conditions: human respiratory syncytial virus
[18] = biological target: T6, High affinity choline transporter 1 (Homo sapiens, UniProt Q9GZV3); experiment: CHT inhibitors, dose response, cell-based, 5-point CRC, membrane potential dye (AID 504840); assay type: functional
T6 sequence (Q9GZV3 whole entry): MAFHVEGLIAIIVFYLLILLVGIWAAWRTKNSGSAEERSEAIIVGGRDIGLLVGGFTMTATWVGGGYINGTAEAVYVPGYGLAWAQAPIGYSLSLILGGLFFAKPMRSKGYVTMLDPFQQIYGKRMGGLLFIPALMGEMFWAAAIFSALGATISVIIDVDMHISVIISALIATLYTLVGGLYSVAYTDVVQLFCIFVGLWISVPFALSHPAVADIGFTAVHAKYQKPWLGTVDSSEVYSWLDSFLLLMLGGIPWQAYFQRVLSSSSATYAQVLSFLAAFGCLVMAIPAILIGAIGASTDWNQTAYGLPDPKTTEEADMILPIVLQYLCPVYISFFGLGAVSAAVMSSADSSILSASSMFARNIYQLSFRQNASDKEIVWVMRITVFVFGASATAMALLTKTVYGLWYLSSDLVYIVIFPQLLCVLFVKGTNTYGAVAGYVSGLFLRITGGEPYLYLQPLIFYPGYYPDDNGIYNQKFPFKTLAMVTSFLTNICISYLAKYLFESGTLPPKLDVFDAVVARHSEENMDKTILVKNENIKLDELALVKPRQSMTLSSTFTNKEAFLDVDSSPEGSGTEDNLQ

[19] = biological target: Paired box protein Pax-8 (Homo sapiens, UniProt Q06710); experiment: inhibitors of PAX8-driven TPO luciferase reporter, dose response, RMG-I cells, cherry-pick (AID 687027); assay type: functional, cell-based;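 note: luciferase reporter driven by Pax8 target thyroperoxidase promoter measured by SteadyGlo luminescence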
Chain of Paired box protein Pax-8 (Q06710 whole entry): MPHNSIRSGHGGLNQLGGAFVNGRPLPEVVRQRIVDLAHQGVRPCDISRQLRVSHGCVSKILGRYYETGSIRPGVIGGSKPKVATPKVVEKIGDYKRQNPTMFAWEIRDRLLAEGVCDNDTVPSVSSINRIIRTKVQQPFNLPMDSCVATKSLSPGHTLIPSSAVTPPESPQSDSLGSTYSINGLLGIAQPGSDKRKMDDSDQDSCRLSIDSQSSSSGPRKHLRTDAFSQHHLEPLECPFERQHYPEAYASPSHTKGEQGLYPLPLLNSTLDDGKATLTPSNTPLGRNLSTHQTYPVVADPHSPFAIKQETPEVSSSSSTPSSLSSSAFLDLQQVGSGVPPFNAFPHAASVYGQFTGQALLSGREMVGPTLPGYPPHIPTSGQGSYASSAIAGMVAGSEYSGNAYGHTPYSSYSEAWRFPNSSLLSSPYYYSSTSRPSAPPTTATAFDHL

C=CCn1c(SCC(=O)Nc2ccc(N(C)C)cc2)nnc1-c1cccc(C)c1
IC50 [1]: 42.8 µM (active)

COc1ccc(-c2cc(-c3nnc(S)n3-c3ccccc3OC)[nH]n2)cc1
AC50 [2]: 41.1 µM (active)

CCCC(=O)NC(C)c1nc2ccccc2[nH]1 (configuration not stated)
IC50 [3]: > 47.1 µM (inactive)
EC50 [4]: > 53 µM (inactive)

Cc1cc(C)n(CCC(=O)N=Nc2c(O)[nH]c3ccc(Br)cc23)n1
IC50 [3]: > 47.1 µM (inactive)
EC50 [4]: > 53 µM (inactive)

O=C(c1[nH]nc2c1CCC2)N1CCCC(Nc2cccc(F)c2)C1 (configuration not stated)
AC50 [2]: 19.5 µM (active)

O=C(COc1cccc(Oc2ccccc2)c1)Nc1ccc(SC(F)F)cc1
IC50 [5]: 4.12 µM (active)
IC50 [6]: 2.43 µM (active)
EC50 [7]: 17.5 µM (active)
EC50 [8]: 14.4 µM (active)
EC50 [9]: > 150 µM (not active)

CCOc1ccc(CCNC(=O)c2cccc(NC3=NC4CS(=O)(=O)CC4S3)c2)cc1OCC (configuration not stated)
IC50 [3]: > 47.1 µM (inactive)
EC50 [4]: > 53 µM (inactive)

COc1cc(OC)cc(C(=O)Nc2nc(CC(=O)NCc3ccccc3OC)cs2)c1
EC50 [7]: > 150 µM (not active)
EC50 [8]: > 150 µM (not active)
EC50 [9]: > 150 µM (not active)

C=CCN=C(S)Nc1ccc(N(C)C)cc1
IC50 [10]: 3.24 µM (active)

CSc1ccc(CN2CCC(N3CC(C)OC(C)C3)CC2)cc1 (configuration not stated)
IC50 [1]: 72.4 µM (active)

COc1cc(N=Nc2c(C)n(C)n(-c3ccccc3)c2=O)ccc1N
IC50 [1]: 43.4 µM (active)

CSCC[C@H](NC(=O)c1nn(C)c(=O)c2ccccc12)c1nc2ccccc2[nH]1
AC50 [11]: 17.8 µM (inconclusive)
EC50 [7]: > 150 µM (not active)
AC50 [12]: 12.6 µM (inconclusive)
EC50 [8]: 1.06 µM (active)
EC50 [9]: 19.8 µM (active)

COC(=O)N1CCc2c(sc(NC(=O)C3=COCCO3)c2C#N)C1
EC50 [13]: 12.5 µM (active)
EC50 [14]: 48.9 µM (active)
EC50 [15]: 8.87 µM (inconclusive)
EC50 [16]: 16.1 µM (active)

COc1cccc(-c2ncc3ccccn23)c1
IC50 [1]: 136 µM (active)
CC50 [17]: 44.1 µM (active)

CC1CN(Cc2nc3c(c(=O)[nH]c(=O)n3C)n2CCCc2ccccc2)CC(C)O1 (configuration not stated)
EC50 [7]: > 150 µM (not active)
EC50 [8]: > 150 µM (not active)
EC50 [9]: > 150 µM (not active)

COc1cc(CNc2ccc(N3CCCCC3)cc2)ccc1OCC(=O)NC(C)(C)C
IC50 [18]: 6.55 µM (active)
IC50 [10]: 12.5 µM (active)

O=C1NC(=S)S/C1=C/c1ccc(N2CCOCC2)o1
IC50 [10]: 18.4 µM (active)

COc1cc(-c2nc3cnccn3c2NC(C)(C)CC(C)(C)C)ccc1O
AC50 [2]: 4.22 µM (active)

Cc1cccc2c(CCNC(=O)c3ccc([N+](=O)[O-])cc3)c[nH]c12
IC50 [3]: > 47.1 µM (inactive)
EC50 [4]: > 53 µM (inactive)

CN1CC(=O)N(CC(=O)N2CCC(Cc3ccccc3)CC2)C1=O
IC50 [3]: > 47.1 µM (inactive)
EC50 [4]: > 53 µM (inactive)

COc1ccc(N2CCN(C(=O)c3cc(C)oc3C)CC2)cc1
EC50 [7]: > 150 µM (not active)
EC50 [8]: > 150 µM (not active)
EC50 [9]: > 150 µM (not active)

CCOC(=O)c1ccc(NC(=O)CN2C(=O)CSC2=O)cc1
IC50 [3]: > 47.1 µM (inactive)
EC50 [4]: > 53 µM (inactive)

CCn1c(SCC(=O)Nc2ccc(N(C)C)cc2)nnc1C1CC1
IC50 [10]: 9.49 µM (active)

COC(=O)c1ccc(CSc2nc3ccccc3c(=O)n2Cc2ccco2)o1
AC50 [2]: 4.51 µM (active)

Cc1cc(-c2cc(C)c(N)cc2C)c(C)cc1N
IC50 [1]: 101 µM (active)

COc1ccc(NC2CCCN(C(=O)CCc3cccc(F)c3)C2)cc1 (configuration not stated)
IC50 [1]: 74.6 µM (active)

C[C@@H]1CN([C@@H](C)CO)C(=O)Cc2cc(NC(=O)CCC(F)(F)F)ccc2O[C@H]1CN(C)Cc1ccc(-c2ccccc2)cc1
AC50 [19]: 8.61 µM (active)

CC(=NNc1cc(C)c2ccccc2n1)c1ccccn1
AC50 [19]: 7.4 µM (active)

CC(C)C(=O)c1ccc(O)c(O)c1
IC50 [10]: 30.9 µM (active)

COc1ccc(S(=O)(=O)Nc2nc3ccccc3nc2NCc2ccc3c(c2)OCO3)cc1
IC50 [3]: > 47.1 µM (inactive)
EC50 [4]: > 53 µM (inactive)

COc1ccc(NC(=O)NS(=O)(=O)c2ccc(C)cc2)cc1OC
IC50 [1]: 36 µM (active)

From ChEMBL document CHEMBL1201862, “PubChem BioAssay data set” (2004)
